{"source": "paper PMC10761730", "about": "“Serglycin secreted by late-stage nucleus pulposus cells is a biomarker of intervertebral disc degeneration” (Nature Communications, 2024)", "target": "T1, Serglycin (SRGN) (Homo sapiens, UniProt P10124)", "T1 construct": "endogenous protein in primary human nucleus pulposus cells; CETSA with Western blot read-out", "T1 sequence (P10124 28-158)": "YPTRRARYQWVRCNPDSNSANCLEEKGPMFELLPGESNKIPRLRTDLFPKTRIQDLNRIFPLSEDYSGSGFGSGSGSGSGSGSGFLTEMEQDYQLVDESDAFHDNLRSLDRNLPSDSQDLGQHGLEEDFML", "experiment": "cellular thermal shift assay (CETSA), Western blot", "type": "cell-based", "details": "intact NPCs pretreated with DAP for 12 h, heated 3 min, freeze-thaw lysis; melt curve only in figure", "data": [{"smiles": "O=c1ccc2ccc(O)c(O)c2o1", "note": "[Daphnetin]", "values": [{"measurement": "cellular thermal shift assay (CETSA), Western blot", "value": "CETSA) of DAP and SRGN proteins also suggested that DAP could bind to SRGN"}]}]}
